# Patent publication US8278310B2, “Amine salts of a CRTH2 antagonist” (Actimis Pharmaceuticals, Inc., priority 2007, dated 2012)
# How the values were obtained:
# [1] = Aqueous solubility of the salts from base screening; type: physicochemical; details: salt of the acid of Formula I with the named base
# CRTH2 = target: T1, CRTH2 (Homo sapiens, UniProt Q9Y5Y4); assay: Competitive radioligand (3H-PGD2) binding assay using CRTH2-transfected cells; details: 1 nM 3H-PGD2, FIG. 20
# T1 construct: expressed in transfected cells
# T1 sequence (Q9Y5Y4 1-395): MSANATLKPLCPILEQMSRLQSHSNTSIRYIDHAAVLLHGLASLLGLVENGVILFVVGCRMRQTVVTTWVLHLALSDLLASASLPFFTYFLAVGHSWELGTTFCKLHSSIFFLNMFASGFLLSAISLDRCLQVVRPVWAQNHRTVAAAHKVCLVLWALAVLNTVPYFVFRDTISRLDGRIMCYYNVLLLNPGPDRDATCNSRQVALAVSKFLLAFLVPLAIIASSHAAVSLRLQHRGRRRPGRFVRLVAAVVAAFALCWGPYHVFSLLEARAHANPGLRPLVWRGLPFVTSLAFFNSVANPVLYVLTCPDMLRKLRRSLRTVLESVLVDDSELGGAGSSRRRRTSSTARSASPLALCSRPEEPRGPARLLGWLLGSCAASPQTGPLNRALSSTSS
# Experimental: The surface expression of CRTH2 on the transfected cell lines was monitored periodically during culture and prior to each competitive radioligand binding assay. […] The cells were then washed in 2 mL of FACS buffer (PBS containing 1% BSA (Fraction V) and 0.1% sodium azide. The cells were subsequently incubated on ice with a FITC-conjugated anti-rat antibody (goat anti-rat Ig-FITC). After washed with cold FACS buffer, the cells were analyzed using a FACScan II analyzer and CellQuest software, both from Becton Dickinson (Mountain View, Calif.).
# The test compounds were dissolved in DMSO at a concentration of 100 mM as stock solutions. Serial dilutions from 10 μM were made in binding buffer prior to assay. Transfected cells were resuspended in binding buffer (50 mM Tris-HCl, 40 mM MgCl2, and 0.1% bovine serum albumin, at pH 7.4) at a concentration of 4×10^6/mL at room temperature. Transfected cells were then seeded in U-bottom polypropylene 96-well plates (Fisher) by adding 50 μL of the cell suspension, followed by addition of 10 μL of ^3H-PGD2, 10 μL of the test compound solutions at a series of concentrations or controls, 30 μL of the binding buffer to bring the final volume to 100 μL. […] Scintillant (50 μL; Microscint™20, Perkin Elmer, Boston, Mass.) was added to each well and the radioactivity was counted on a TopCount (Packard Bioscience, Meriden, Conn.). […]
# DP1 = target: T2, DP1 (Homo sapiens, UniProt Q13258); assay: Competitive radioligand (3H-PGD2) binding assay using DP1-transfected cells; details: CRTH2- versus DP1-transfected cells, FIGS. 20 and 21
# T2 sequence (Q13258 1-359): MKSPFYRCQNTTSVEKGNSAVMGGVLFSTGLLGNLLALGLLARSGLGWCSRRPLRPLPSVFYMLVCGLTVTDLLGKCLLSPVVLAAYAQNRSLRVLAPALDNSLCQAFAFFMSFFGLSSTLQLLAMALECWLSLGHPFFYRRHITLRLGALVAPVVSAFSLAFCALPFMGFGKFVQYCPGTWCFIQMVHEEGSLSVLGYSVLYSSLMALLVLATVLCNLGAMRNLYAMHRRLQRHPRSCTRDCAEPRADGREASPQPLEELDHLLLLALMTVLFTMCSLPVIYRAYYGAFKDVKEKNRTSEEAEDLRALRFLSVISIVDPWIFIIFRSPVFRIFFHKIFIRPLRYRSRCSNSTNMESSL
# Experimental: The binding affinity and selectivity of the amine salts of 4,6-bis(dimethylamino)-2-(4-(4-(trifluoromethyl)benzamido)benzyl)pyrimidin-5-yl}acetic acid provided herein were evaluated using a competitive radioligand binding assay with stably-transfected cell lines expressing CRTH2 or DP1.
# The CRTH2 and DP1 stable cell lines were generated according to the procedure described by Sugimoto et al. (J. Pharm. Exp. Therap. 2003, 305, 347-352). These cell lines were maintained in RPMI 1640 culture medium containing HEPES buffer (25 mM), FCS (10%), L-glutamine (2 mM), penicillin (10 IU/mL), streptomycin (100 μg/mL), and puromycin (1 μg/mL).
# Radioligand binding analyses were performed according to the methods of Sugimoto et al. (J. Pharm. Exp. Therap. 2003, 305, 347-352; Eur. J. Pharmacol. 2005, 524, 30-37). The test compounds were dissolved in DMSO at a concentration of 100 mM as stock solutions. Serial dilutions from 10 μM were made in binding buffer prior to assay. Transfected cells were resuspended in binding buffer (50 mM Tris-HCl, 40 mM MgCl2, and 0.1% bovine serum albumin, at pH 7.4) at a concentration of 4×10^6/mL at room temperature. […] Scintillant (50 μL; Microscint™20, Perkin Elmer, Boston, Mass.) was added to each well and the radioactivity was counted on a TopCount (Packard Bioscience, Meriden, Conn.). […]
Aqueous Solubility at 25° C. [1] [mg/mL],binding affinity for CRTH2 (CRTH2),binding selectivity for CRTH2 (DP1),Compound
0.08,–,–,"CN(C)c1nc(Cc2ccc(NC(=O)c3ccc(C(F)(F)F)cc3)cc2)nc(N(C)C)c1CC(=O)O.c1ccc(CNCCNCc2ccccc2)cc1 [Benzathine, Benzathine Salt of {4,6-Bis(dimethylamino)-2-(4-(4-(trifluoromethyl)benzamido)benzyl)pyrimidin-5-yl}Acetic Acid]"
5.4,–,–,"piperazine Salt of {4,6-Bis(dimethylamino)-2-(4-(4-(trifluoromethyl)benzamido)benzyl)pyrimidin-5-yl}Acetic Acid"
–,high affinity,bind selectively,"CN(C)c1nc(Cc2ccc(NC(=O)c3ccc(C(F)(F)F)cc3)cc2)nc(N(C)C)c1CC(=O)O [Formula I, {4,6-bis(dimethyl-amino)-2-(4-(4-(trifluoro-methyl)benzamido)benzyl)pyrimidin-5-yl}acetic acid]"
